Laboratory results reported in ChEMBL document CHEMBL3301361, “Experimental in vitro DMPK and physicochemical data on a set of publicly disclosed compounds”.
Values after ≈ are worked out from the molar mass of the structure shown.

Key:
in vitro [1] = details: human
in vitro [2] = details: hepatocytes
physchem [3] = details: pH 7.4 buffer
physchem [4] = details: octan-1-ol/water, pH 7.4, LogD7.4
in vitro [5] = details: human, plasma

Row | Compound | microsomal CLint (in vitro [1]; microsomes) [µL/min/mg] | hepatocyte CLint (in vitro [2]) [µL/min/1e6 cells] | solubility thermodynamic (physchem [3]) [µM] | logD (physchem [4]) | microsomal CLint (in vitro [1]; liver microsomes) [µL/min/mg] | fraction unbound at 5 h (in vitro [5]; PPB) | fraction unbound at 5 h (in vitro [5])
1 | Cc1nc2ccccn2c1-c1ccnc(N)n1 | 50.1 | 21.4 | 1510 (≈ 341 µg/mL) | – | – | – | –
2 | CS(=O)(=O)c1ccc([C@H](CC2CCCC2)C(=O)Nc2nccs2)cc1 | 43.6 | 35.5 | 5.8 (≈ 2.2 µg/mL) | 3.88 | – | – | –
3 | C[C@H]1C[C@@H](NS(=O)(=O)c2cc(Br)ccc2Br)CN1C#N | 16 | 39 | 31.6 (≈ 13.4 µg/mL) | 2.13 | – | – | –
4 | CCNC(=O)c1cnc(N2CCN(C3CCN(Cc4ccc(Cl)cc4F)CC3)[C@@H](CC)C2)c(Cl)c1 | 11 | 38 | 91.2 (≈ 47.7 µg/mL) | – | – | – | –
5 | Cc1ccc(CNC(=O)C2CCCN2S(=O)(=O)c2ccc(F)cc2)cc1 (configuration not stated) | – | > 150 | 8.9 (≈ 3.35 µg/mL) | 2.9 | > 150 | – | –
6 | Cc1ccc(S(=O)(=O)Nc2c(C(=O)N[C@@H](C)C(C)(C)C)c(C)nn2C2CCCCC2)cc1 | 33 | 8 | 871 (≈ 401 µg/mL) | 1.97 | – | – | –
7 | COc1ccc(N(C(=O)Oc2c(C)cccc2C)c2ccnc(Nc3ccc(N4CCN(C)CC4)cc3)n2)c(OC)c1 | 27.5 | 35.5 | – | – | – | – | 0.0017
8 | CCNC(=O)C[C@H]1N=C(c2ccc(Cl)cc2)c2cc(OC)ccc2-n2c(C)nnc21 | 11.5 | 6.31 | – | – | – | – | 0.069
9 | N#CC1(NC(=O)[C@@H]2CCCC[C@H]2C(=O)N2CCc3[nH]c4ccc(F)cc4c3C2)CC1 | – | 41.4 | 525 (≈ 214 µg/mL) | – | 12.5 | – | –
10 | C[C@@H](C(N)=O)c1ccc(OS(=O)(=O)C(F)(F)F)cc1 | – | 3 | – | – | < 3 | 0.134 | –
11 | Cn1c(-c2ccccc2C(F)(F)F)nnc1C12CCC(c3noc(-c4ccc(F)cc4)n3)(CC1)CC2 | – | 7.94 | 0.9 (≈ 0.448 µg/mL) | – | < 3 | – | –
12 | Cn1c(=O)c(Oc2ccc(F)cc2F)cc2cnc(NC(CCO)CCO)nc21 [PAMAPIMOD] | 4.57 | < 3 | – | 1.5 | – | – | –
13 | Cc1cc(CCCOc2c(C)cc(-c3noc(C(F)(F)F)n3)cc2C)on1 [PLECONARIL] | – | 13.5 | – | 3.63 | 14.4 | – | –
14 | Cc1oc(=O)oc1CN1CCN(c2cc3c(cc2F)c(=O)c(C(=O)O)c2n3C(C)S2)CC1 (configuration not stated) [PRULIFLOXACIN] | – | 69.2 | – | 0.47 | 15.5 | – | –
15 | CS(=O)(=O)c1ccc([C@@H](CC2CCCC2)C(=O)Nc2nccs2)cc1 [Ro-281675] | 29.5 | 20.9 | 5.5 (≈ 2.08 µg/mL) | 3.86 | – | – | –

Continued, in another order:

Row | microsomal CLint (in vitro [1]; microsomes) [µL/min/mg] | hepatocyte CLint (in vitro [2]) [µL/min/1e6 cells] | solubility thermodynamic (physchem [3]) [µM] | logD (physchem [4]) | microsomal CLint (in vitro [1]; liver microsomes) [µL/min/mg] | fraction unbound at 5 h (in vitro [5]; PPB) | Compound | fraction unbound at 5 h (in vitro [5])
16 | 25 | 72 | 1510 (≈ 650 µg/mL) | – | – | – | O=C(CCOCCc1ccccc1)NCCNCCc1ccc(O)c2nc(O)sc12 | –
17 | – | > 150 | – | – | > 150 | – | Cc1[nH]c2ccc(-c3nnc(SCC(=O)N4CCCc5ccccc54)o3)cc2c1C | 0.0052
18 | – | 52.5 | 1.6 (≈ 0.586 µg/mL) | – | 60.3 | – | Oc1ncnc2c1c(-c1ccccc1)cn2-c1ccc(Br)cc1 | –
19 | – | > 150 | 22.4 (≈ 6.39 µg/mL) | 2.13 | 5 | – | Cc1c(C(=O)Nc2ccccc2)sc2ncnc(O)c12 | –
20 | 71 | 77 | 58.9 (≈ 18.1 µg/mL) | 2.7 | – | – | CCN(CC)CCn1c2ccccc2c2cnc(N)c(C#N)c21 | –
21 | 15 | 20 | 166 (≈ 82.9 µg/mL) | 2.63 | – | – | Cc1cc(CN2CCc3ccccc3C2C(=O)Nc2ccc(Cl)cc2Cl)ccc1OCC(=O)O (configuration not stated) | –
22 | – | 74 | – | – | 31 | 0.398 | CSCCC(NC(=O)c1cnccn1)c1nc2ccccc2[nH]1 (configuration not stated) | –
23 | – | 21 | 10.5 (≈ 4.46 µg/mL) | 4.31 | 17 | – | CCOc1ccc2oc(C(=O)NC(CCSC)c3nc4cnccc4[nH]3)c(C)c2c1 (configuration not stated) | –
24 | 11.2 | 24 | 2.1 (≈ 0.788 µg/mL) | 4.5 | – | – | CN(C)CCNc1cc(-c2ccccc2)nc2cc(-c3ccc(F)cc3)nn12 | –
25 | – | 148 | – | – | > 150 | – | COCCNc1nc(NCc2ccccc2F)c2sccc2n1 | 0.028
26 | – | 11 | 1.5 (≈ 0.714 µg/mL) | – | 22 | – | CN1CCC(Oc2cccc3ncnc(Nc4ccc(OCc5ccccn5)c(Cl)c4)c23)CC1 | –
27 | 19 | 42 | 118 (≈ 58.5 µg/mL) | 1.63 | – | – | O=c1[nH]c2c(O)ccc([C@@H](O)CNCCc3cccc(CNCCc4ccccc4Cl)c3)c2s1 | –
28 | – | 65 | 646 (≈ 254 µg/mL) | 2.14 | < 3 | – | CC[C@@H](Nc1c(Nc2cccc(C(=O)N(C)C)c2O)c(=O)c1=O)c1ccccc1 | –
29 | – | 13.5 | 26.3 (≈ 13 µg/mL) | 2.45 | 30.2 | – | CN1CCN(CCOc2n[nH]c3ncnc(Nc4ccc(OCc5ccccn5)c(Cl)c4)c23)CC1 | –
30 | – | > 150 | 372 (≈ 183 µg/mL) | – | > 150 | – | Cc1ccc(CCOCCNS(=O)(=O)CCCNCCc2ccc(O)c3nc(O)sc23)cc1 | –
31 | – | 46 | – | 1.79 | < 3 | – | Cc1nccn1CCC(C(N)=O)(c1ccccc1)c1ccccc1 [IMIDAFENACIN] | –
32 | – | 17 | 1.3 (≈ 0.548 µg/mL) | – | 17.4 | – | C[C@]1(O)C[C@@H](c2nc(-c3ccc4ccc(-c5ccccc5)nc4c3)c3c(N)nccn32)C1 [LINSITINIB] | –
33 | < 3 | < 3 | – | 1.91 | – | – | Nc1c(C(=O)c2cccc(OC[C@@H](O)CO)c2)cnn1-c1ccc(F)cc1 [RO-3201195] | –
